From ChEMBL document CHEMBL2029330 (Bioorg Med Chem Lett, 2012) come the findings set out here.

A short description of data set [1]: Aqueous solubility of the compound at pH 7.4. It counts as physicochemical. As to conditions: aqueous medium.
The next data set can be described thus: in vitro. As to conditions: human, hepatocytes.
The nature of data set [2]: Volume of distribution at steady state in rat. Format: ADME, organism-based. As to conditions: in vivo, read-out: Vdss.
Data set [3] in a line: Oral bioavailability in rat. It counts as ADME, organism-based. As to conditions: in vivo.
A short description of data set [4]: Volume of distribution at steady state in dog. Format: ADME, organism-based, Canis lupus familiaris. As to conditions: in vivo, read-out: Vdss.
The nature of data set [5]: Oral bioavailability in dog. It counts as ADME, organism-based, Canis lupus familiaris. As to conditions: in vivo.
Data set [6] in a line: Clearance in rat. As to conditions: in vivo. It counts as ADME, organism-based.
The nature of data set [7]: Half life in rat. It counts as ADME, organism-based. As to conditions: in vivo.
A short description of data set [8]: Clearance in dog. Format: ADME, organism-based, Canis lupus familiaris. As to conditions: in vivo.
The nature of data set [9]: Half life in dog. Format: ADME, organism-based, Canis lupus familiaris. As to conditions: in vivo.
The nature of data set [10]: Lipophilicity, log D of the compound at pH 7.4. It counts as physicochemical. As to conditions: buffer.
The nature of data set [11]: Dissociation constant, pKa of the compound. It counts as physicochemical.
Data set [12] is described as follows: Apparent permeability of the compound from apical to basolateral side across human Caco2 cells at 10 uM. It counts as ADME, cell-based. As to conditions: Caco-2. In general terms: Passage across Caco-2 layers is used to estimate intestinal permeability.
Data set [13] is described as follows: Apparent permeability of the compound from basolateral to apical side across human Caco2 cells at 10 uM. As to conditions: Caco-2. It counts as ADME, cell-based.

SMILES strings stand for the structures. Converted amounts (≈) assume the structure as drawn.

By solubility is commonly meant the concentration that dissolves in the medium under given conditions. High values mean much dissolved substance, low ones little dissolved substance. By hepatocyte CLint is commonly meant a measure of how fast metabolising enzymes remove a compound, apart from limits set by blood flow. Read a high hepatocyte CLint as faster metabolism. As a reminder, the bioavailability is dose-corrected exposure relative to a reference, in per cent. Read a high bioavailability as much systemic uptake. Usually clearance stands for the volume of plasma or blood freed of the substance per unit of time. A lower clearance goes with inefficient removal. As usually defined, the half-life is the time in which the quantity being followed falls by half. Read a low half-life as fast loss. The term logD denotes lipophilicity at a set pH, counting ionised and neutral species. As usually defined, the pKa is the negative logarithm of the acid dissociation constant. The low end stands for a group that gives up its proton readily, the high end for a group that holds its proton tightly. In general, Papp A→B refers to the apparent permeability from the apical to the basolateral side of a cell layer. For orientation: Papp B→A means the apparent permeability from the basolateral to the apical side of a cell layer.

With `Cc1ccc(NC(=O)c2ccnc(N3CCOCC3)c2)cc1-n1cnc2ccc(N3CCN(C)CC3)cc2c1=O`, the concentration in solution in [1] (solubility) was 300 µM (≈ 162 µg/mL). In “in vitro”, this molecule had a hepatocyte CLint of 17 µL/min/1e6 cells.

Molecule `Cc1ccc(NC(=O)c2ccnc(N3CCOCC3)c2)cc1-n1c(C)nc2ccc(N3CCN(C)CC3)cc2c1=O` showed a solubility in data set [1] of 300 µM (≈ 166 µg/mL).

With `Cc1ccc(NC(=O)c2cccc(N3CCOCC3)c2)cc1-n1cnc2ccc(N3CCN(C)CC3)cc2c1=O`, in [1], the solubility is 300 µM (≈ 162 µg/mL).

For the molecule `Cc1ccc(NC(=O)c2ccccc2)cc1-n1cnc2ccc(N3CCN(C)CC3)cc2c1=O`, in “in vitro”, the hepatocyte CLint turned out to be 6 µL/min/1e6 cells.

In “in vitro”, `COc1ccccc1C(=O)Nc1ccc(C)c(-n2cnc3ccc(N4CCN(C)CC4)cc3c2=O)c1` gave a hepatocyte CLint of 5 µL/min/1e6 cells.

In turn, `Cc1ccc(NC(=O)c2cccc(C#N)c2)cc1-n1cnc2ccc(N3CCN(C)CC3)cc2c1=O` registered a hepatocyte CLint in the data set “in vitro” of under 3 µL/min/1e6 cells.

For the molecule `Cc1ccc(NC(=O)c2ccc(C#N)cc2)cc1-n1cnc2ccc(N3CCN(C)CC3)cc2c1=O`, the Vd in [2] was 4.8 L/kg; in [4] it was 7.8 L/kg. Besides, the bioavailability amounted to 29% in data set [3] and 53% in data set [5].

The molecule `Cc1ccc(NC(=O)c2ccccc2F)cc1-n1cnc2ccc(N3CCN(C)CC3)cc2c1=O` returned a hepatocyte CLint in the data set “in vitro” of 7 µL/min/1e6 cells.

As for `Cc1ccc(NC(=O)c2cccc(F)c2)cc1-n1cnc2ccc(N3CCN(C)CC3)cc2c1=O`, in the data set “in vitro”, the hepatocyte CLint worked out at 11 µL/min/1e6 cells.

In turn, `Cc1ccc(NC(=O)c2ccno2)cc1-n1cnc2ccc(N3CCN(C)CC3)cc2c1=O` displayed a hepatocyte CLint in “in vitro” of 5 µL/min/1e6 cells.

For `Cc1ccc(NC(=O)c2cscn2)cc1-n1cnc2ccc(N3CCN(C)CC3)cc2c1=O`, the hepatocyte CLint in the data set “in vitro” is 7 µL/min/1e6 cells.

In turn, `Cc1ccc(NC(=O)c2cncs2)cc1-n1cnc2ccc(N3CCN(C)CC3)cc2c1=O` displayed a hepatocyte CLint in the data set “in vitro” of under 3 µL/min/1e6 cells.

Turning to `Cc1ccc(C(=O)Nc2ccon2)cc1-n1cnc2ccc(N3CCN(C)CC3)cc2c1=O`, the figures for the clearance in data set [6] and in data set [8] were 17 mL/min/kg and 19 mL/min/kg, respectively. The half-life was 1.7 h in data set [7] and 4 h in data set [9]. In addition, the Vd is 2.5 L/kg in data set [2] and 3.7 L/kg in [4]. Moreover, the bioavailability came to 41% in data set [3] and 20% in data set [5].

Turning to `Cc1ccc(C(=O)NC2CC2)cc1-n1cnc2ccc(N3CCN(C)CC3)cc2c1=O` [AZD-6703], the values for the clearance in data set [6] and in data set [8] were 26 mL/min/kg and 24 mL/min/kg, respectively. The Vd in data set [2] came to 1.9 L/kg; in data set [4], 3.3 L/kg. For the same molecule, the bioavailability in [3] stood at 49%; in data set [5], 68%. Also, in [9], the half-life was 1.7 h. The pH-dependent lipophilicity (logD) in data set [10] is 1.6. The molecule further displayed a pKa in data set [11] of 7.6. Further, the Papp A→B at 10 µM in [12] stood at 6 ×10⁻⁶ cm/s. In addition, the Papp B→A at 10 µM in data set [13] was 11 ×10⁻⁶ cm/s. In “in vitro”, the hepatocyte CLint was 2 µL/min/1e6 cells.
